For one data set, the target named is T1, mouse PPARα (Mus musculus, UniProt P23204).
T1 construct: expressed in transfected cells; host or cells: CV-1 (monkey kidney) cells, transient transfection
T1 sequence (P23204 159-468): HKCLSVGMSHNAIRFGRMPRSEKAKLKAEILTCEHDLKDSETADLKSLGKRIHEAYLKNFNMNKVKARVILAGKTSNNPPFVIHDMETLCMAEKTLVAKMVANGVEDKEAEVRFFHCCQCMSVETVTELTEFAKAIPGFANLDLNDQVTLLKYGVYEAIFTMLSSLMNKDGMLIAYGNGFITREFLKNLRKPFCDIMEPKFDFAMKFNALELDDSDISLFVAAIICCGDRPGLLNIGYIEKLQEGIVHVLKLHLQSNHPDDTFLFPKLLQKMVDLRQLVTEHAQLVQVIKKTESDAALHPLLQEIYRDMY
Description: PPAR-GAL4 transactivation assay in transiently transfected CV-1 cells. In kind it is cell-based. The note with it: PPAR-GAL4 chimeric receptor, read-out: EC50(nM) mPPARα. The method, then: To assess the functional transcriptional activity of these compounds, cell-based assays using chimeric receptor Gal4 DNA-binding domain (DBD)-NR ligand binding domain cotransfection assay (LBDs of PPARα, PPARγ, and PPARδ) were performed. As an initial screen to determine the PPARα activity and selectivity, all compounds were evaluated for in vitro potency and selectivity by transfection testing, using CV-1 cells transfected with human and mouse PPARs. MH100×4 is a luciferase reporter with four copies of a GAL4 UASG response element, where GAL-I refers to the ligand-binding domain of the indicated receptor fused to the C-terminus of the GAL4 DNA-binding domain. Assays were performed using a Biomek automated workstation in which the genes for the nuclear receptor, as well as a plasmid containing a response element upstream of a luciferase cDNA, are transfected into CV-1 cells. Compounds were evaluated for their ability to activate human and mouse PPARs at […] test concentrations. […] The transactivation activity of the series of compounds (DY121-132, 10a-g) toward PPARα was expressed as EC50, which is the concentration of the test compound that affords half-maximum activity, as summarized in Table 1.
In vitro binding and transfection studies. As an initial screen to determine the PPARα, PPARγ, and PPARδ activity, all compounds were evaluated for in vitro potency and selectivity by transfection testing, using CV-1 cells transfected with human and mouse PPARs. MH100×4 is a luciferase reporter with four copies of a GAL4 USAG response element, where GAL-I refers to the ligand-binding domain of the indicated receptor fused to the C-terminus of the GAL4 DNA-binding domain. Assays were performed using a Biomek automated workstation in which the gene for the nuclear receptor, as well as a plasmid containing a response element upstream of a luciferase cDNA, are transfected into CV-1 cells. Compounds were evaluated for their ability to activate human PPARs at 1, 2.5, 3, and 5 uM test concentrations.
Compounds were screened for agonist activity towards PPAR-GAL4 chimeric receptors in transiently transfected CV-1 cells as described. EC50 is the concentration of test compound that gave 50% maximum efficacy.

Another data set deals with T2, PPARα (Homo sapiens, UniProt Q07869).
T2 construct: expressed in transfected cells; host or cells: CV-1 (monkey kidney) cells
T2 sequence (Q07869 1-468): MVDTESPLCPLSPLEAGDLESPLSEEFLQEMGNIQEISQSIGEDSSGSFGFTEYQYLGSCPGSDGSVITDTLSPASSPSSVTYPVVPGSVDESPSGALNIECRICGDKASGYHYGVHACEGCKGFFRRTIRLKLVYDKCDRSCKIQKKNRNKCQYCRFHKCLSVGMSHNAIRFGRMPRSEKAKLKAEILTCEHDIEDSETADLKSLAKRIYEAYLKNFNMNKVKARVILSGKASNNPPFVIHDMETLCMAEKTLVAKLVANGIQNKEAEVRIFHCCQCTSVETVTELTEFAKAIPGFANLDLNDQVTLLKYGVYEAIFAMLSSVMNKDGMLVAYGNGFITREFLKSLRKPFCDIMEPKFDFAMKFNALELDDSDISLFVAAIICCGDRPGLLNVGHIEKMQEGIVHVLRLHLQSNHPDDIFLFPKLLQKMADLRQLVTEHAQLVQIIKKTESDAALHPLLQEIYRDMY
T2 sequence (P19793 1-462 partner): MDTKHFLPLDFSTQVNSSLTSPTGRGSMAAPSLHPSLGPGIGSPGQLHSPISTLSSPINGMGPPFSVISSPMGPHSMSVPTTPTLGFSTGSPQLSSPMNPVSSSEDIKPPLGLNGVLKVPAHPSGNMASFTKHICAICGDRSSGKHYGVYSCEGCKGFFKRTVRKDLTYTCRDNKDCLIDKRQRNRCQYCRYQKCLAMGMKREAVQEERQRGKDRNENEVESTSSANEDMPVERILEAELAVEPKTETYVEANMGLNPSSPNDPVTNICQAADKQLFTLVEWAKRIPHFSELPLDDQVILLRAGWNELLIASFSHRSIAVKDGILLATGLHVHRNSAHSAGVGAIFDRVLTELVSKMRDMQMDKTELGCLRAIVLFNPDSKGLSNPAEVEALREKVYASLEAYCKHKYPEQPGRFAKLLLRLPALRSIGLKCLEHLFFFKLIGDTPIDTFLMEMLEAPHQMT
Description: PPRE-luc reporter assay in CV-1 cells co-transfected with PPARα and RXRα expression plasmids. The note with it: luciferase reporter. Format: cell-based. The method, then:
In brief, monkey kidney CV-1 cells were co-transfected with appropriate reporter constructs and expression vectors. The fold activation of the reporter construct by ligand was determined at several concentrations of selected compounds (FIG. 4).^20 To examine the effect of DY-compound on PPARα-mediated PPRE transcriptional activation, a PPRE-luc reporter assay was conducted using a PPRE-driven luciferase reporter-gene (PPRE-luc) plasmid and PPARα and RXRα gene expression plasmids in CV-1 cells.

The nature of data set [1]: Body weight and food intake of treated mice. Format: in vivo. The method, then:
Next, we would like to investigate the therapeutic potential of DY121 to see if it could be candidate for treating NAFLD/NASH. Note that the pathogenesis of NASH has not yet been fully elucidated so far; however, the ‘two-hit’ theory is widely accepted. The first hit is the accumulation of fatty acids in the liver to cause steatosis. […] The newly produced PPARα agonist DY121 and its analogs, as well as WY100=WY14643 and GW3 (GW7647), were evaluated in C57Bl/6J female mice for their ability to alter serum triglyceride, liver gene expression, and glucose. Fibric acid derivatives (100 mg/kg/day) was used as a control, WY100 (WY14, 643, 100 mg/kg/day), GW3 (GW7647-positive control, 3 mg/kg/day), DY121 (˜3 mg/kg/day), respectively. DY series compounds and controls administered once to C57Bl/6J female mice at 8 weeks of age. Mice were treated at 3 mg/kg for all compounds except WY14643 (100 mg/kg).

The values that follow come from US20190077774A1, “PEROXISOME PROLIFERATOR-ACTIVATED RECEPTOR AGONISTS” (City of Hope, priority 2017, published 2019).

SMILES strings stand for the structures.

Take `COc1ccc(Cn2c(CCCc3ccc(OC(C)(C)C(=O)O)cc3)nn(Cc3ccc(C)cc3)c2=O)cc1` [10a, 2-(4-{3-[4-(4-Methoxy-benzyl)-1-(4-methyl-benzyl)-5-oxo-4,5-dihydro-1H[1,2,4]triazol-3-yl]-propyl}-phenoxy)-2-methyl-propionic acid]: the EC50 on mouse PPARα was 3 nM. The “PPARα activation / PPRE-luc activity” value on PPARα is “highest PPARα activation”. Moreover, the body weight entry in data set [1] (24 h vs 72 h (FIG. 8)) is on record as “unaffected”. In addition, in data set [1] (vs control group), the “body weights and food intake” value is recorded as “no significant differences”.
